Reference: US8609685B2, “SMAC mimetic compounds as apoptosis inducers” (CISI SCRL, priority 2007, dated 2013)
Read-outs that look alike come from different tables or passages of the source.

Assays:
K562 cells [1] = assay: Combination treatment with cytotoxic agents, WST-1 assay, K562; details: Homo sapiens, K562, 72 h, read-out: cell growth/viability, mean percentage normalized to the untreated control
HL60 cells [2] = assay: Standalone cytotoxicity, WST-1 colorimetric assay, HL60; type: cell-based; details: Homo sapiens, HL-60
Procedure: (§1) All the cell lines were grown at density of 1×10^5 cells per ml and seeded (100 μl of cell suspension/well) on 96-well microtiter plates with or without escalating doses of SMAC-mimic compounds. Cells were incubated at 37° C. in a 5% CO2 fully humidified atmosphere and examined at 24, 48 and 72 hours for cytotoxicity with the WST-1 colorimetric assay. […] Data are expressed as mean percentage of three replicates normalized to the untreated control.

ARH77 cell line = assay: Standalone cytotoxicity, WST-1 colorimetric assay, ARH77; type: cell-based; details: Homo sapiens, ARH-77
Procedure: as §1, with “HL60 and K562 human cell lines were cultured in RPMI 1640 culture medium supplemented with 10% FBS while the ARH77 and KMS26 cell lines were cultured in IMDM culture medium supplemented with 10% FBS. All” for “All”

MDA-MB-231 cells = assay: Standalone cytotoxicity, MTT assay, MDA-MB-231; type: cell-based; details: Homo sapiens; for IC80: read-out: IC80 (μM ± standard Deviation); for IC50: read-out: IC50 (μM ± standard Deviation)
Procedure: Reagents for cell culture were purchased from Sigma unless otherwise indicated below. […] A subcultivation ratio of 1:4 was used.
(§2) The cellular growth inhibitory effect of our compounds was evaluated using the MTT assay (Sigma). After 96 hours of treatment, 10 μl of MTT reagent solution (5 mg of MTT powder/ml diluted in Phosphate Buffer Salt saline solution) were added in each well and allowed to react for 3 hours in the incubator. After 3 hours cells were solubilized in Lysis Buffer (10% SDS/0.1% HCl in water, 100 μl for each well) for 24 hours at 37° C. Finally, the absorbance was measured at 570 nm using a multiplate reader. Absorbance values were collected and IC50/IC80 values were determined using GraphPad Prism 5 software. The experiments were repeated twice.
MDA-MB-231 cells were seeded in 96-well flat bottom cell culture plates at a density of 5000 cells/well in 100 μl of culture medium and allowed to adhere for 24 hours in the incubator. After 24 hours MDA-MB-231 cells were exposed to the compounds at various concentrations for 96 hours in the incubator (50 nM, 100 nM, 200 nM, 500 nM, 1 μM, 5 μM, 10 μM, 50 μM and 100 μM). Each point was done in triplicate.
as §2, with “After” for “The cellular growth inhibitory effect of our compounds was evaluated using the MTT assay (Sigma). After”

K562 cells [3] = assay: Standalone cytotoxicity, WST-1 colorimetric assay, K562; type: cell-based; details: Homo sapiens
Procedure: as §1

KMS26 cell line = assay: Standalone cytotoxicity, WST-1 colorimetric assay, KMS26; type: cell-based; details: Homo sapiens, KMS-26
Procedure: as §1

HL60 cells [4] = assay: Combination treatment with cytotoxic agents, WST-1 assay, HL60; type: cell-based; details: Homo sapiens, HL-60, 72 h; read-out: cell growth/viability, mean percentage normalized to the untreated control
[5] = molecular target: T1, human XIAP linker-BIR2-BIR3 (Homo sapiens, UniProt P98170); assay: Fluorescence polarization competitive binding, displacement of SMAC-1F probe from XIAP linker-BIR2-BIR3-His-tag; details: XIAP linker-BIR2-BIR3, average of three independent measurements
T1 construct: human XIAP from residue 124 to 356 (linker-BIR2-BIR3); made in house; host or cells: Escherichia coli BL21
T1 sequence (P98170 124-356): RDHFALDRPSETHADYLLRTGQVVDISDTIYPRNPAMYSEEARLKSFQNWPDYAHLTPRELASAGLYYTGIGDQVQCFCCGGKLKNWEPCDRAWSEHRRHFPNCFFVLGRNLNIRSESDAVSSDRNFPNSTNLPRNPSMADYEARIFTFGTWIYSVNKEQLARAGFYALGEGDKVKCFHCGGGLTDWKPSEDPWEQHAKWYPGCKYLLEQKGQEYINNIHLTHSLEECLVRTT
Procedure: (§3) Data were analyzed using Prism 4.0 software (Graphpad Software).

human XIAP BIR3 domain = molecular target: T2, human XIAP BIR3 domain (Homo sapiens, UniProt P98170); assay: Fluorescence polarization competitive binding, displacement of FITC-SMAC probe from XIAP BIR3-His-tag; details: XIAP BIR3, average of three independent measurements
T2 construct: human XIAP BIR3 domain from residue 241 to 356; made in house; host or cells: Escherichia coli BL21
T2 sequence (P98170 241-356): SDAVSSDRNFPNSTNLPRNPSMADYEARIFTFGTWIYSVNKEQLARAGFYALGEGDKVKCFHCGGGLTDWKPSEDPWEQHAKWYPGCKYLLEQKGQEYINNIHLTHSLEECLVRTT
Procedure: as §3

XIAP = XIAP (Homo sapiens, UniProt P98170); details: background statement; cited from earlier work
Sequence of XIAP (P98170 whole entry): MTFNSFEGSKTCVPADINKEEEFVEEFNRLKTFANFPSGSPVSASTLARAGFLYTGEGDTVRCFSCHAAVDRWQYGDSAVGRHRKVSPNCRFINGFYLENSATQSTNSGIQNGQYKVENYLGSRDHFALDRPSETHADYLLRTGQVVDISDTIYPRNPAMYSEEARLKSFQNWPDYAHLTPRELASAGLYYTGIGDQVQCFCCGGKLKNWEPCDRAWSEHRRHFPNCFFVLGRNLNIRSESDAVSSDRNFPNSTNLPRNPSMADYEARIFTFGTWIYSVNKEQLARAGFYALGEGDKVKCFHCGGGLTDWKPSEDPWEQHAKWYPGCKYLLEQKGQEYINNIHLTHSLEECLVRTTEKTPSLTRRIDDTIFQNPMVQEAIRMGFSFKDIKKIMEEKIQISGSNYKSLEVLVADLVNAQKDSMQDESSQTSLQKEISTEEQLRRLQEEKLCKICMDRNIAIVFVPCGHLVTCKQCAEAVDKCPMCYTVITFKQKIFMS

## CC[C@H](N)C(=O)N[C@@H]1C(=O)N2[C@@H](CC[C@@H]1CO)CC[C@H]2C(=O)NC(c1ccccc1)c1ccccc1 [Compound 24a]
K562 cells [1]
  viability at 0.05 µM: 90%
HL60 cells [2]; HL60, 24 hrs
  IC50: > 10000 nM
ARH77 cell line; ARH77, 24 hrs
  IC50: > 10000 nM
ARH77 cell line; ARH77, 48 hrs
  IC50: > 10000 nM
ARH77 cell line; ARH77, 72 hrs
  IC50: > 10000 nM
MDA-MB-231 cells; MDA-MB-231, 96 hours, MTT
  IC80: 3.9 ± 0.07 µM
K562 cells [3]; K562, 24 hrs
  IC50: > 10000 nM
K562 cells [3]; K562, 48 hrs
  IC50: > 10000 nM
K562 cells [3]; K562, 72 hrs
  IC50: > 10000 nM
KMS26 cell line; KMS26, 24 hrs
  IC50: > 10000 nM
HL60 cells [4]
  viability at 0.01 µM: 110%

## CC[C@H](NC)C(=O)N[C@@H]1C(=O)N2[C@@H](CC[C@@H]1CO)CC[C@H]2C(=O)NC(c1ccccc1)c1ccccc1 [Compound 24g]
MDA-MB-231 cells; MDA-MB-231, 96 h
  IC50: 0.237 ± 0.003 µM
MDA-MB-231 cells; MDA-MB-231, 96 hours, MTT
  IC80: 0.87 ± 0.004 µM

## CC[C@H](N)C(=O)N[C@@H]1C(=O)N2[C@@H](CC[C@@H]1CN=[N+]=[N-])CC[C@H]2C(=O)NC(c1ccccc1)c1ccccc1 [Compound 25a]
HL60 cells [2]; HL60, 24 hrs
  IC50: > 10000 nM
HL60 cells [2]; HL60, 48 hrs
  IC50: 3320 nM
HL60 cells [2]; HL60, 72 hrs
  IC50: 1.8 nM
K562 cells [3]; K562, 24 hrs
  IC50: 4780 nM
K562 cells [3]; K562, 48 hrs
  IC50: 3950 nM
K562 cells [3]; K562, 72 hrs
  IC50: 2130 nM

## CC[C@H](N)C(=O)N[C@@H]1C(=O)N2[C@@H](CC[C@@H]1CN)CC[C@H]2C(=O)NC(c1ccccc1)c1ccccc1 [Compound 26a]
ARH77 cell line; ARH77, 24 hrs
  IC50: > 10000 nM
ARH77 cell line; ARH77, 48 hrs
  IC50: > 10000 nM
ARH77 cell line; ARH77, 72 hrs
  IC50: > 10000 nM
K562 cells [3]; K562, 24 hrs
  IC50: 593 nM
K562 cells [3]; K562, 48 hrs
  IC50: 0.06 nM
K562 cells [3]; K562, 72 hrs
  IC50: 0.08 nM
KMS26 cell line; KMS26, 24 hrs
  IC50: > 10000 nM
KMS26 cell line; KMS26, 48 hrs
  IC50: 0.002 nM
KMS26 cell line; KMS26, 72 hrs
  IC50: 62.3 nM

## CC[C@H](N)C(=O)N[C@@H]1C(=O)N2[C@@H](CC[C@@H]1COC(C)=O)CC[C@H]2C(=O)NC(c1ccccc1)c1ccccc1 [Compound 30a]
HL60 cells [2]; HL60, 24 hrs
  IC50: > 10000 nM
HL60 cells [2]; HL60, 48 hrs
  IC50: 1790 nM
HL60 cells [2]; HL60, 72 hrs
  IC50: 623 nM
K562 cells [3]; K562, 24 hrs
  IC50: > 10000 nM
K562 cells [3]; K562, 48 hrs
  IC50: > 10000 nM
K562 cells [3]; K562, 72 hrs
  IC50: > 10000 nM

## CC[C@H](N)C(=O)N[C@@H]1C(=O)N2[C@@H](CC[C@@H]1CCN)CC[C@H]2C(=O)NC(c1ccccc1)c1ccccc1 [Compound 38a]
[5]
  IC50: 85 nM
Human XIAP BIR3 domain
  IC50: 324 nM
MDA-MB-231 cells; MDA-MB-231, 96 hours, MTT
  IC50: 12.9 ± 0.3 µM
  IC80: 33.9 ± 0.7 µM

## CC[C@H](NC)C(=O)N[C@@H]1C(=O)N2[C@@H](CC[C@@H]1CCN)CC[C@H]2C(=O)NC(c1ccccc1)c1ccccc1 [Compound 38d]
MDA-MB-231 cells; MDA-MB-231, 96 h
  IC50: 2.3 ± 1.2 µM
MDA-MB-231 cells; MDA-MB-231, 96 hours, MTT
  IC80: 14.8 ± 1 µM

## CC[C@H](N)C(=O)N[C@@H]1C(=O)N2[C@@H](CC[C@@H]1Cn1cc(CO[C@H](C)[C@H](NC(=O)[C@H](C)NC)C(=O)N3CCC[C@H]3Cn3nnnc3Sc3ccccc3)nn1)CC[C@H]2C(=O)NC(c1ccccc1)c1ccccc1 [Compound 44a]
K562 cells [1]
  viability at 0.0001 µM: 89%
ARH77 cell line; ARH77, 24 hrs
  IC50: > 10000 nM
ARH77 cell line; ARH77, 48 hrs
  IC50: > 10000 nM
ARH77 cell line; ARH77, 72 hrs
  IC50: > 10000 nM
MDA-MB-231 cells; MDA-MB-231, 96 hours, MTT
  IC50: 0.168 ± 0.002 µM
  IC80: 0.288 ± 0.003 µM

## CC[C@H](N)C(=O)N[C@@H]1C(=O)N2C(CC[C@@H]1CNC(=O)CCC#CC#CCCC(=O)NC[C@H]1CC[C@H]3CC[C@@H](C(=O)NC(c4ccccc4)c4ccccc4)N3C(=O)[C@H]1NC(=O)[C@@H](N)CC)CC[C@H]2C(=O)NC(c1ccccc1)c1ccccc1 (some centres unmarked) [Compound 46a]
MDA-MB-231 cells; MDA-MB-231, 96 hours, MTT
  IC50: 0.116 ± 0.002 µM
  IC80: 0.17 ± 0.002 µM

## CC(=O)O[C@H]1C(=O)[C@@]2(C)[C@H]([C@H](OC(=O)c3ccccc3)[C@]3(O)C[C@H](OC(=O)[C@H](O)[C@@H](NC(=O)c4ccccc4)c4ccccc4)C(C)=C1C3(C)C)[C@]1(OC(C)=O)CO[C@@H]1C[C@@H]2O [Taxol, taxol, reference compound]
K562 cells [1]
  viability at 0.1 µM: 69%

B1: mature Smac protein: mature Smac/DIABLO protein, endogenous inhibitor of XIAP (protein, UniProt Q9NR28 22-239, looked up)
Diablo IAP-binding …: LCVPVVANFKKRCFSELIRPWHKTVTIGFGVTLCAVPIAQKSEPHSLSSEALMRRAVSLVTDSTSTFLSQTTYALIEAITEYTKAVYTLTSLYRQYTSLLGKMNSEEEDEVWQVIIGARAEMTSKHQEYLKLETTWMTAVGLSEMAAEAAYQTGADQASITARNHIQLVKLQVEEVHQLSRKAETKLAEAQIEELRQKTQEEGEERAESEQEAYLRED
XIAP
  Kd: 420 nM
